{"source": "paper PMC4884629", "about": "(Toxicology and applied pharmacology, 2013)", "target": "HERG potassium channel (Homo sapiens, UniProt Q12809)", "sequence (Q12809 whole entry)": "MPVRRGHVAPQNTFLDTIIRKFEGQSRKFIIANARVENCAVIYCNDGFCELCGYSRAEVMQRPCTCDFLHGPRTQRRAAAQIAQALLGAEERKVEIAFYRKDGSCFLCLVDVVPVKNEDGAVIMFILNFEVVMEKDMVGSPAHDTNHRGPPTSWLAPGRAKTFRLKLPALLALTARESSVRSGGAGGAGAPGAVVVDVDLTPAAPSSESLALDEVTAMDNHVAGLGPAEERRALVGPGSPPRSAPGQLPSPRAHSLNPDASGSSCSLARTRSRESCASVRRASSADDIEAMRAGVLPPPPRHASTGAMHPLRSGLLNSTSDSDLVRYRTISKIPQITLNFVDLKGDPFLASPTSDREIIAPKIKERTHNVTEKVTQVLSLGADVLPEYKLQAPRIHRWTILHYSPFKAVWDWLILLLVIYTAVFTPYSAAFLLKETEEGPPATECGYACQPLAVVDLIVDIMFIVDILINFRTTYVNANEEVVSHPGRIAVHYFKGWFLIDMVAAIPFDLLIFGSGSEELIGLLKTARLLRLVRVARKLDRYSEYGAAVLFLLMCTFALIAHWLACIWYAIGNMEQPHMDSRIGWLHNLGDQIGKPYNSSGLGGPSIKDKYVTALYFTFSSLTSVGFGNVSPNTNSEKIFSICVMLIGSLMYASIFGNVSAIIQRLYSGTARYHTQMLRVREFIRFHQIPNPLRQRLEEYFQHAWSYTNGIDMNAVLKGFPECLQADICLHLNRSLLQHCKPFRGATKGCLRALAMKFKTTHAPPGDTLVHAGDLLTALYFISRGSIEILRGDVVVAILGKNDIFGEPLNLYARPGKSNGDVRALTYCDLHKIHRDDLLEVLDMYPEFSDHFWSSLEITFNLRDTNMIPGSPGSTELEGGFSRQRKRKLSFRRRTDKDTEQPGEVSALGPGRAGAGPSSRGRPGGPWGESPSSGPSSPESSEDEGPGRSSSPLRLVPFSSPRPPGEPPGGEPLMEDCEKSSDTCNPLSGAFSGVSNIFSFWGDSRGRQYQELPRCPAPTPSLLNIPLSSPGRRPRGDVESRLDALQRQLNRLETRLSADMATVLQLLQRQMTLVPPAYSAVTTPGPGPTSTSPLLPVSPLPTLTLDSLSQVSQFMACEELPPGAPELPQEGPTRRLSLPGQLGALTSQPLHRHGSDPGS", "test": "whole-cell patch clamp, HERG tail current in CHO cells", "assay_type": "cell-based", "data": [{"molecule": "CCCCCCCC[N+](CCCCCCCC)(CCCCCCCC)CCCCCCCC", "note": "[TB, tetra-n-octylammonium bromide]", "values": [{"measurement": "IC50", "value": 4, "unit": "nM"}]}]}
